In the NIST ThermoML archive (doi:10.1021/je8007759):
± gives the expanded uncertainty stated by the source.

Experiment: xn = mol fraction of the nth substance listed

CC1CCC(=O)O1 (stereo not given) [γ-valerolactone] + O=C=O
Fluid (supercritical or subcritical phases), Pycnometric method
Details	mass density [kg/m3]
318 K, 9480 kPa, x1 = 0.025	709 ± 16
318 K, 9480 kPa, x1 = 0.05	792 ± 8
318 K, 9490 kPa, x1 = 0.15	952 ± 4
318 K, 9530 kPa, x1 = 0.025	714 ± 17
318 K, 9540 kPa, x1 = 0.01	602 ± 10
318 K, 9540 kPa, x1 = 0.1	896 ± 7
318 K, 9590 kPa, x1 = 0.025	718 ± 16
318 K, 9600 kPa, x1 = 0.05	797 ± 8
318 K, 9610 kPa, x1 = 0.01	611 ± 14
318 K, 9660 kPa, x1 = 0.025	723 ± 16
318 K, 9690 kPa, x1 = 0.01	619 ± 13
318 K, 9730 kPa, x1 = 0.025	728 ± 12
318 K, 9730 kPa, x1 = 0.1	900 ± 5
318 K, 9760 kPa, x1 = 0.05	803 ± 7
318 K, 9800 kPa, x1 = 0.01	631 ± 11
318 K, 9800 kPa, x1 = 0.025	732 ± 12
318 K, 9860 kPa, x1 = 0.025	737 ± 12
318 K, 9880 kPa, x1 = 0.1	903 ± 5
318 K, 9930 kPa, x1 = 0.01	642 ± 13
318 K, 9940 kPa, x1 = 0.05	809 ± 6
318 K, 9940 kPa, x1 = 0.15	956 ± 4
318 K, 9950 kPa, x1 = 0.025	742 ± 11
318 K, 10020 kPa, x1 = 0.01	652 ± 10
318 K, 10050 kPa, x1 = 0.025	747 ± 8
318 K, 10080 kPa, x1 = 0.01	657 ± 9
318 K, 10130 kPa, x1 = 0.05	814 ± 5
318 K, 10140 kPa, x1 = 0.1	906 ± 5
318 K, 10150 kPa, x1 = 0.025	752 ± 10
318 K, 10260 kPa, x1 = 0.025	757 ± 15
318 K, 10320 kPa, x1 = 0.15	959 ± 4
318 K, 10340 kPa, x1 = 0.05	820 ± 5
318 K, 10340 kPa, x1 = 0.1	909 ± 5
318 K, 10380 kPa, x1 = 0.025	762 ± 17
318 K, 10500 kPa, x1 = 0.025	768 ± 8
318 K, 10600 kPa, x1 = 0.05	825 ± 5
318 K, 10610 kPa, x1 = 0.1	912 ± 6
318 K, 10640 kPa, x1 = 0.025	773 ± 6
318 K, 10750 kPa, x1 = 0.01	695 ± 8
318 K, 10800 kPa, x1 = 0.025	779 ± 6
318 K, 10850 kPa, x1 = 0.1	916 ± 4
318 K, 10870 kPa, x1 = 0.05	832 ± 6
318 K, 10920 kPa, x1 = 0.15	962 ± 4
318 K, 10960 kPa, x1 = 0.025	784 ± 5
318 K, 11040 kPa, x1 = 0.01	711 ± 8
318 K, 11120 kPa, x1 = 0.025	789 ± 7
318 K, 11140 kPa, x1 = 0.1	919 ± 5
318 K, 11160 kPa, x1 = 0.05	838 ± 5
318 K, 11320 kPa, x1 = 0.025	795 ± 10
318 K, 11440 kPa, x1 = 0.1	922 ± 4
318 K, 11470 kPa, x1 = 0.05	843 ± 5
318 K, 11480 kPa, x1 = 0.15	966 ± 4
318 K, 11520 kPa, x1 = 0.025	801 ± 6
318 K, 11740 kPa, x1 = 0.025	806 ± 6
318 K, 11750 kPa, x1 = 0.1	925 ± 4
318 K, 11860 kPa, x1 = 0.05	850 ± 5
318 K, 11950 kPa, x1 = 0.025	813 ± 5
318 K, 11960 kPa, x1 = 0.15	969 ± 4
318 K, 12090 kPa, x1 = 0.1	928 ± 4
318 K, 12210 kPa, x1 = 0.025	818 ± 5
318 K, 12240 kPa, x1 = 0.05	857 ± 5
318 K, 12490 kPa, x1 = 0.025	824 ± 5
318 K, 12600 kPa, x1 = 0.15	972 ± 4
318 K, 12670 kPa, x1 = 0.05	862 ± 5
318 K, 12770 kPa, x1 = 0.025	830 ± 5
318 K, 12780 kPa, x1 = 0.1	935 ± 4
318 K, 13080 kPa, x1 = 0.025	836 ± 5
318 K, 13090 kPa, x1 = 0.15	975 ± 4
318 K, 13150 kPa, x1 = 0.05	869 ± 5
318 K, 13490 kPa, x1 = 0.025	843 ± 5
318 K, 13580 kPa, x1 = 0.1	943 ± 4
318 K, 13710 kPa, x1 = 0.15	978 ± 4
318 K, 13740 kPa, x1 = 0.025	849 ± 5
318 K, 13850 kPa, x1 = 0.05	878 ± 5
318 K, 13990 kPa, x1 = 0.1	945 ± 5
318 K, 14310 kPa, x1 = 0.15	982 ± 4
318 K, 14380 kPa, x1 = 0.1	949 ± 5
318 K, 15060 kPa, x1 = 0.15	986 ± 4
318 K, 15680 kPa, x1 = 0.15	989 ± 4
318 K, 16350 kPa, x1 = 0.15	992 ± 4
318 K, 16950 kPa, x1 = 0.15	995 ± 4
322.9 K, 9850 kPa, x1 = 0.01	518 ± 17

mass density [kg/m3], 318 K, high pressure variable cell
Details	x1 = 0.01	x1 = 0.025	x1 = 0.1	x1 = 0.15
Gas	516 ± 4	677 ± 4	–	–
Liquid	–	–	891 ± 4	948 ± 4
